The values below come from patent US7855213B2 (AstraZeneca AB, priority 2006, dated 2010).

Counter-ions that a name gives are not always drawn.

T1 sequence (P56817 22-460): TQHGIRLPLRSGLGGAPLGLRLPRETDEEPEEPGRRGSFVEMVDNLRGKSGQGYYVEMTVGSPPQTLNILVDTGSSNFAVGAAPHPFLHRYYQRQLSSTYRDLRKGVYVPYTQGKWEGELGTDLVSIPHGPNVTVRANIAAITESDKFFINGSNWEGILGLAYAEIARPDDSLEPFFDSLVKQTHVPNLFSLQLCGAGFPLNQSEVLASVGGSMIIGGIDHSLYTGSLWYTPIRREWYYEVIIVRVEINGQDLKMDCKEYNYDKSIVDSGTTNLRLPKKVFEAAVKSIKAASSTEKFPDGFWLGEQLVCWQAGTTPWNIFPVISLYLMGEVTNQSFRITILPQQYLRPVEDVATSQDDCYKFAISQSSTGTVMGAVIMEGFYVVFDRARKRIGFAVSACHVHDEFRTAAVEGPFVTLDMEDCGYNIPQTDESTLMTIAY

The assay concerns the target T1, human β-Secretase (Homo sapiens, UniProt P56817).
T1 construct: The soluble part of the human β-Secretase (AA 1-AA 460) was cloned; made in house
In words: TR-FRET assay. In kind it is biochemical.
What is called IC50 is the concentration that inhibits the measured activity by half. Lower therefore signals higher potency. Consider `COc1cc(C2(c3cccc(-c4cccnc4F)c3)N=C(N)c3ccccc32)ccn1` (stereo not drawn) [Example 119, 1-[3-(2-Fluoropyridin-3-yl)phenyl]-1-(2-methoxypyridin-4-yl)-1H-isoindol-3-amine], for which the half-inhibitory concentration (IC50) was 110 nM. Consider `COc1ccc(C2(c3cccc(-c4cccnc4)c3)N=C(N)c3ccccc32)cc1` (stereo not drawn) [Example 9, 3-(4-Methoxy-phenyl)-3-(3-pyridin-3-yl-phenyl)-3H-isoindol-1-ylamine trifluoroacetate], for which the IC50 was determined as 154 nM. For `COc1cc(OS(C)(=O)=O)cc(-c2cccc(C3(c4ccc5c(c4)OCO5)N=C(N)c4ccccc43)c2)c1` (stereo not drawn) [Example 34, Methanesulfonic acid 3′-(3-amino-1-benzo[1,3]dioxol-5-yl-1H-isoindol-1-yl)-5-methoxy-biphenyl-3-yl ester trifluoroacetate] the value was 1090 nM; for `N#Cc1cncc(-c2cccc(C3(c4ccncc4F)N=C(N)c4ccccc43)c2)c1` (stereo not drawn) [Example 102, 5-{3-[3-Amino-1-(3-fluoropyridin-4-yl)-1H-isoindol-1-yl]phenyl}nicotinonitrile], 310 nM; for `NC1=NC(c2ccc(F)c(-c3cncc(F)c3)c2)(c2ccncc2F)c2ccccc21` (stereo not drawn) [Example 75, 1-[4-Fluoro-3-(5-fluoropyridin-3-yl)phenyl]-1-(3-fluoropyridin-4-yl)-1H-isoindol-3-amine 1.5 acetate], 280 nM. Turning to `COc1ncc(C2(c3cccc(-c4cccnc4F)c3)N=C(N)c3ccccc32)cn1` (stereo not drawn) [Example 107, 1-[3-(2-Fluoropyridin-3-yl)phenyl]-1-(2-methoxypyrimidin-5-yl)-1H-isoindol-3-amine], the IC50 came out at 440 nM. This IC50 is about 1.6-fold higher than that of the molecule before. Molecule `NC1=NC(c2ccncc2)(c2ccc(F)c(-c3cccnc3F)c2)c2ccccc21` (stereo not drawn) [Example 105, 1-[4-Fluoro-3-(2-fluoropyridin-3-yl)phenyl]-1-pyridin-4-yl-1H-isoindol-3-amine] had a 50% inhibitory concentration (IC50) of 29 nM. Regarding `NC1=NC(c2cccc(OS(=O)(=O)C(F)(F)F)c2)(c2ccc(F)c(-c3cncnc3)c2)c2ccccc21` (stereo not drawn) [Example 134, 3-[3-Amino-1-(4-fluoro-3-pyrimidin-5-ylphenyl)-1H-isoindol-1-yl]phenyl trifluoromethanesulfonate], inhibition was half-maximal at 347 nM (IC50). Regarding `NC1=NC(c2ccc(C(F)(F)F)cc2)(c2cccc(-c3cccnc3F)c2)c2ccccc21` (stereo not drawn) [Example 66, 1-[3-(2-Fluoropyridin-3-yl)phenyl]-1-[4-(trifluoromethyl)phenyl]-1H-isoindol-3-amine], the IC50 was 520 nM.

Regarding `COc1ccc(C2(c3cccc(-c4cccnc4F)c3)N=C(N)c3ccccc32)cc1` (stereo not drawn) [Example 10, 3-[3-(2-Fluoro-pyridin-3-yl)-phenyl]-3-(4-methoxy-phenyl)-3H-isoindol-1-ylamine trifluoroacetate], the midpoint of inhibition, the IC50, lay at 78 nM. Next, `COc1cccc(-c2cccc(C3(c4ccncc4)N=C(N)c4ccccc43)c2)c1F` (stereo not drawn) [Example 104, 1-(2′-Fluoro-3′-methoxybiphenyl-3-yl)-1-pyridin-4-yl-1H-isoindol-3-amine]: 59 nM; `NC1=NC(c2cccc(-c3cncnc3)c2)(c2ccnc(Cl)c2)c2ccccc21` (stereo not drawn) [Example 122, 1-(2-Chloropyridin-4-yl)-1-(3-pyrimidin-5-ylphenyl)-1H-isoindol-3-amine]: 160 nM; `COc1cncc(-c2cccc(C3(c4ccc5c(c4)OCO5)N=C(N)c4ccccc43)c2)c1` (stereo not drawn) [Example 32, 3-Benzo[1,3]dioxol-5-yl-3-[3-(5-methoxy-pyridin-3-yl)-phenyl]3H isoindol-1-ylamine trifluoroacetate]: 708 nM. `COc1cc(OS(C)(=O)=O)cc(-c2cccc(C3(c4ccc(OS(C)(=O)=O)cc4)N=C(N)c4ccccc43)c2)c1` (stereo not drawn) [Example 41, Methanesulfonic acid 4-[3-amino-1-(5′-methane-sulfonyloxy-3′-methoxy-biphenyl-3-yl)-1H-isoindol-1-yl]-phenyl ester trifluoroacetate]: the IC50 is 575 nM. `COc1ccc(C2(c3cccc(-c4ccccc4C(N)=O)c3)N=C(N)c3ccccc32)cc1` (stereo not drawn) [Example 55, 3′-[3-Amino-1-(4-methoxyphenyl)-1H-isoindol-1-yl]biphenyl-2-carboxamide 0.5 acetate] gave a half-inhibitory concentration (IC50) of 2000 nM.

Consider `NC1=NC(c2cccc(-c3cncc(F)c3)c2)(c2ccncc2F)c2ccccc21` (stereo not drawn) [Example 71, 1-(3-Fluoropyridin-4-yl)-1-[3-(5-fluoropyridin-3-yl)phenyl]-1H-isoindol-3-amine 0.5 acetate], for which half-maximal inhibition (IC50) required 190 nM. For `NC1=NC(c2cccc(-c3cncnc3)c2)(c2ccncc2F)c2ccccc21` (stereo not drawn) [Example 72, 1-(3-Fluoropyridin-4-yl)-1-(3-pyrimidin-5-ylphenyl)-1H-isoindol-3-amine 1.25 acetate] the value was 250 nM; for `COc1ccc(C2(c3cccc(-c4cccnc4)c3)N=C(N)c3ccccc32)cc1C` (stereo not drawn) [Example 22, 3-(4-Methoxy-3-methyl-phenyl)-3-(3-pyridin-3-yl-phenyl)-3H-isoindol-1-ylamine trifluoroacetate], 145 nM.

Turning to `NC1=NC(c2ccc(OC(F)(F)F)cc2)(c2cccc(-c3cncnc3)c2)c2ccccc21` (stereo not drawn) [Example 57, 1-(3-Pyrimidin-5-ylphenyl)-1-[4-(trifluoromethoxy)phenyl]-1H-isoindol-3-amine 0.25 acetate], half-maximal inhibition (IC50) was put at 180 nM. In turn, `N#Cc1ccc(C2(c3cccc(-c4cccnc4F)c3)N=C(N)c3ccccc32)cc1` (stereo not drawn) [Example 65, 4-{3-Amino-1-[3-(2-fluoropyridin-3-yl)phenyl]-1H-isoindol-1-yl}benzonitrile] had an IC50 of 400 nM. Against the preceding molecule, the IC50 is about 2.2-fold higher.

The molecule `NC1=NC(c2cccc(-c3cccnc3F)c2)(c2ccc3c(c2)OCCO3)c2ccccc21` (stereo not drawn) [Example 15, 3-(2,3-Dihydrobenzo[b][1,4]dioxin-6-yl)-3-(3-(2-fluoropyridin-3-yl)phenyl)-3H-isoindol-1-amine trifluoroacetate] came in with an IC50 of 748 nM. In the case of `COc1cncc(-c2cccc(C3(c4ccncc4)N=C(N)c4ccc(F)cc43)c2)c1` (stereo not drawn) [Example 85, 6-Fluoro-1-[3-(5-methoxypyridin-3-yl)phenyl]-1-pyridin-4-yl-1H-isoindol-3-amine], the IC50 worked out at 45 nM. Next, `NC1=NC(c2ccc(F)c(-c3cccnc3F)c2)(c2ccncc2F)c2ccccc21` (stereo not drawn) [Example 76, 1-[4-Fluoro-3-(2-fluoropyridin-3-yl)phenyl]-1-(3-fluoropyridin-4-yl)-1H-isoindol-3-amine 1.5 acetate]: 100 nM; `NC1=NC(c2cncc(F)c2)(c2cccc(-c3cccnc3F)c2)c2ccccc21` (stereo not drawn) [Example 124, 1-(5-Fluoropyridin-3-yl)-1-[3-(2-fluoropyridin-3-yl)phenyl]-1H-isoindol-3-amine]: 560 nM; `CCc1cc(C2(c3cccc(-c4cccnc4F)c3)N=C(N)c3ccccc32)ccn1` (stereo not drawn) [Example 112, 1-(2-Ethylpyridin-4-yl)-1-[3-(2-fluoropyridin-3-yl)phenyl]-1H-isoindol-3-amine]: 96 nM. Next, `COc1cccc(-c2cc(C3(c4ccncc4F)N=C(N)c4ccccc43)ccc2F)c1F` (stereo not drawn) [Example 101, 1-(2′,6-Difluoro-3′-methoxybiphenyl-3-yl)-1-(3-fluoropyridin-4-yl)-1H-isoindol-3-amine]: 230 nM. For `COc1ccc(C2(c3cccc(-c4cc(OC)cc(OS(C)(=O)=O)c4)c3)N=C(N)c3ccccc32)cc1` (stereo not drawn) [Example 14, Methanesulfonic acid 3′-[3-amino-1-(4-methoxy-phenyl)-1H-isoindol-1-yl]-5-methoxy-biphenyl-3-yl ester trifluoroacetate] the value was 153 nM; for `CC(C)c1cc(C2(c3cccc(-c4cccnc4F)c3)N=C(N)c3ccccc32)ccn1` (stereo not drawn) [Example 115, 1-[3-(2-Fluoropyridin-3-yl)phenyl]-1-(2-isopropylpyridin-4-yl)-1H-isoindol-3-amine], 210 nM; for `NC1=NC(c2cccc(-c3cncnc3)c2)(C2CC2)c2ccccc21` (stereo not drawn) [Example 92, 1-Cyclopropyl-1-(3-pyrimidin-5-ylphenyl)-1H-isoindol-3-amine acetate], 270 nM. `NC1=NC(c2cccc(-c3cncnc3)c2)(c2ccc3c(c2)OCCO3)c2ccccc21` (stereo not drawn) [Example 18, 3-(2,3-Dihydrobenzo[b][1,4]dioxin-6-yl)-3-(3-(pyrimidin-5-yl)phenyl)-3H-isoindol-1-amine trifluoroacetate] came in with an IC50 of 593 nM. This IC50 is about 2.2-fold higher than that of the molecule before. `COc1cncc(-c2cccc(C3(c4ccncc4)N=C(N)c4ccccc43)c2)c1` (stereo not drawn) [Example 46, 3-[3-(5-Methoxy-pyridin-3-yl)-phenyl]-3-pyridin-4-yl-3H-isoindol-1-ylamine trifluoroacetate]: 98 nM corresponded to half-maximal inhibition (IC50).

`Cc1nn(C)c(Cl)c1S(=O)(=O)Oc1cccc(C2(c3cc(Cl)nc(Cl)c3)N=C(N)c3ccccc32)c1` (stereo not drawn) [Example 131, 3-[3-Amino-1-(2,6-dichloropyridin-4-yl)-1H-isoindol-1-yl]phenyl 5-chloro-1,3-dimethyl-1H-pyrazole-4-sulfonate]: the half-inhibitory concentration (IC50) was found to be 1070 nM. For `COc1ccc(C#N)c(-c2cccc(C3(C4CC4)N=C(N)c4ccccc43)c2)c1` (stereo not drawn) [Example 91, 3′-(3-Amino-1-cyclopropyl-1H-isoindol-1-yl)-5-methoxybiphenyl-2-carbonitrile acetate] the value was 413 nM; for `NC1=NC(c2ccc(O)cc2)(c2ccc(O)cc2)c2ccccc21` [Example 6, 4,4′-(3-Amino-isoindole-1,1-diyl)-bis-phenol], 3520 nM. For `NC1=NC(c2ccc(OS(=O)(=O)C(F)(F)F)cc2)(c2ccc(F)c(-c3cncnc3)c2)c2ccccc21` (stereo not drawn) [Example 136, 4-[3-Amino-1-(4-fluoro-3-pyrimidin-5-ylphenyl)-1H-isoindol-1-yl]phenyl trifluoromethanesulfonate] the value was 457 nM.

In the case of `COc1cncc(-c2cccc(C3(c4ccc(OC)c(C)c4)N=C(N)c4ccccc43)c2)c1` (stereo not drawn) [Example 21, 3-(4-Methoxy-3-methyl-phenyl)-3-[3-(5-methoxy-pyridin-3-yl)-phenyl]-3H-isoindol-1-ylamine trifluoroacetate], the half-inhibitory concentration (IC50) came out at 42 nM. This IC50 is about 11-fold lower than that of the molecule before.
